We go through 30 compounds from patent US20250313548A1 (Actio Biosciences, Inc., priority 2023, published 2025).

A value given as a limit tells only on which side of the number the result lay.

human, KCNT1, sequence (Q5JUK3 whole entry): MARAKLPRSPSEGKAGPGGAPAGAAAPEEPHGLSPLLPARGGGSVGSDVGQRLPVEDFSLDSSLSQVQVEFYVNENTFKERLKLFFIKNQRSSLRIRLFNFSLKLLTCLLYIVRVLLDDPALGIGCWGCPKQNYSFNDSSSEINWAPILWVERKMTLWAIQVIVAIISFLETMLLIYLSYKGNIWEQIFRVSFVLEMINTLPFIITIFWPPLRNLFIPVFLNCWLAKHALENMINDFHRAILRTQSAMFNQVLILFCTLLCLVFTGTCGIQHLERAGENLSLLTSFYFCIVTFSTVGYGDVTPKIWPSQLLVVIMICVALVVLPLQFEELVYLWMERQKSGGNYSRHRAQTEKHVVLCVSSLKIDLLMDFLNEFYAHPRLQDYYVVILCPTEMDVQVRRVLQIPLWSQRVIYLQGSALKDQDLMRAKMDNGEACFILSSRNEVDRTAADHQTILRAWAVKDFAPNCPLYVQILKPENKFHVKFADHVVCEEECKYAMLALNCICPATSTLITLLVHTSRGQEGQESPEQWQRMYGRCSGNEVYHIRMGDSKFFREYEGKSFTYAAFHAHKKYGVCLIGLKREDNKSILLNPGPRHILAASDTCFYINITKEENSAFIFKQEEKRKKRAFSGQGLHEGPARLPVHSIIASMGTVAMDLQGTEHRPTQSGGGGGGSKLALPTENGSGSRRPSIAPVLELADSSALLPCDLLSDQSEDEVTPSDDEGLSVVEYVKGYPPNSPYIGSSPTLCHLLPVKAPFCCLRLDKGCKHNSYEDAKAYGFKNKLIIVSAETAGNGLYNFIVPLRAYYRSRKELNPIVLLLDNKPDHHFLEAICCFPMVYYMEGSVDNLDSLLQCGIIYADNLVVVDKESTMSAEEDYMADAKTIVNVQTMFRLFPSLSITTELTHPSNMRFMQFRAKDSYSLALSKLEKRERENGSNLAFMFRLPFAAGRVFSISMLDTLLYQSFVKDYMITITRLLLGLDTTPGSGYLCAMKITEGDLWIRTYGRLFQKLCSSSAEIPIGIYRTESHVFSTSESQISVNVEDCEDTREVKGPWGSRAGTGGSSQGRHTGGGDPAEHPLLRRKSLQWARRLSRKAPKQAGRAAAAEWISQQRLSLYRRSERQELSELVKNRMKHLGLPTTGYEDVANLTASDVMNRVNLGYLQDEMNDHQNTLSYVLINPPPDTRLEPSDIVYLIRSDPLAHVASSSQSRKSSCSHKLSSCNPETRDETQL

This test addresses human, KCNT1 (Homo sapiens (Human), UniProt Q5JUK3). The experiment in a line: FLIPR Tl/K Flux Assay. Type of test: cell-based. The conditions noted are these: HEK293 cells stably expressing human KCNT1; Tl+ flux stimulated with EC80 of agonist Loxapine. A digest of the protocol:
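Inhibition values come from a Hill-equation fit of % inhibition versus log concentration, using normalized fluorescence (Fmax/Fmin) over a 160 s read. The read followed stimulation with Tl+ plus EC80 agonist loxapine after 30 min compound pre-incubation at 25 °C. Cells were KCNT1-expressing HEK293, dye-loaded 1 h in pH 7.4 HEPES/HBSS with 5 mM probenecid.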
With `O=C(N[C@H]1CCn2nc(-c3ccnc(C(F)(F)F)c3)cc21)c1cccc(C(F)(F)F)c1` [Compound I-289a, (S)-3-(Trifluoromethyl)-N-(2-(2-(trifluoromethyl)pyridin-4-yl)-5,6-dihydro-4H-pyrrolo[1,2-b]pyrazol-4-yl)benzamide], the IC50 – broadly, the point on the concentration scale where inhibition reaches its midpoint – is below 250 nM.
For `O=C(N[C@H]1CCCn2nc(-c3ccnc(C(F)(F)F)c3)cc21)c1cccc(C(F)(F)F)c1` [Compound I-290a, (S)-3-(Trifluoromethyl)-N-(2-(2-(trifluoromethyl)pyridin-4-yl)-4,5,6,7-tetrahydropyrazolo[1,5-a]pyridin-4-yl)benzamide] the value was below 250 nM; for `O=C(N[C@H]1CCn2nc(-c3ccnc(C(F)(F)F)c3)cc21)c1cc2cccnn2c1` [Compound I-291a, (S)-N-(2-(2-(Trifluoromethyl)pyridin-4-yl)-5,6-dihydro-4H-pyrrolo[1,2-b]pyrazol-4-yl)pyrrolo[1,2-b]pyridazine-6-carboxamide], below 250 nM; for `COc1cc(-c2cc3n(n2)CC[C@@H]3NC(=O)c2cc3cccnn3c2)ccn1` [Compound I-292a, (S)-N-(2-(2-Methoxypyridin-4-yl)-5,6-dihydro-4H-pyrrolo[1,2-b]pyrazol-4-yl)pyrrolo[1,2-b]pyridazine-6-carboxamide], below 250 nM.
The compound `COc1cc(-c2nc3c(o2)CCC[C@@H]3NC(=O)c2cc3cccnn3c2)ccn1` [Compound I-293a, (S)-N-(2-(2-Methoxypyridin-4-yl)-4,5,6,7-tetrahydrobenzo[d]oxazol-4-yl)pyrrolo[1,2-b]pyridazine-6-carboxamide] gave an IC50 of 250 to 500 nM.
As for `COc1cc(-c2nc3c(o2)CCC[C@@H]3NC(=O)c2cccc(C#N)c2)ccn1` [Compound I-294a, (S)-3-Cyano-N-(2-(2-methoxypyridin-4-yl)-4,5,6,7-tetrahydrobenzo[d]oxazol-4-yl)benzamide], the half-maximal inhibitory concentration (IC50) was below 250 nM.
For `N#Cc1cc(C(=O)N[C@H]2CCCn3nc(-c4ccnc(C(F)(F)F)c4)cc32)cc(C(F)(F)F)c1` [Compound I-295a, (S)-3-Cyano-5-(trifluoromethyl)-N-(2-(2-(trifluoromethyl)pyridin-4-yl)-4,5,6,7-tetrahydropyrazolo[1,5-a]pyridin-4-yl)benzamide], the half-maximal inhibitory concentration (IC50) was below 250 nM.
The compound `O=C(N[C@H]1CCCc2oc(-c3ccnc(C(F)(F)F)c3)nc21)c1cc2cccnn2c1` [Compound I-296a, (S)-N-(2-(2-(Trifluoromethyl)pyridin-4-yl)-4,5,6,7-tetrahydrobenzo[d]oxazol-4-yl)pyrrolo[1,2-b]pyridazine-6-carboxamide] returned a half-maximal inhibitory concentration (IC50) below 250 nM.
In the case of `N#Cc1cccc(C(=O)N[C@H]2CCCc3oc(-c4ccnc(C(F)(F)F)c4)nc32)c1` [Compound I-297a, (S)-3-Cyano-N-(2-(2-(trifluoromethyl)pyridin-4-yl)-4,5,6,7-tetrahydrobenzo[d]oxazol-4-yl)benzamide], the IC50 is below 250 nM.
The result for `N#Cc1cc(F)cc(C(=O)N[C@H]2CCCc3oc(-c4ccnc(C(F)(F)F)c4)nc32)c1` [Compound I-298a, (S)-3-Cyano-5-fluoro-N-(2-(2-(trifluoromethyl)pyridin-4-yl)-4,5,6,7-tetrahydrobenzo[d]oxazol-4-yl)benzamide] reads below 250 nM; that for `COc1cc(C(=O)N[C@H]2CCCc3oc(-c4ccnc(C(F)(F)F)c4)nc32)ccn1` [Compound I-299a], below 250 nM; that for `N#Cc1cc(F)cc(C(=O)N[C@H]2CCn3nc(-c4ccnc(C5CC5)c4)cc32)c1` [Compound I-300a, (S)-3-Cyano-N-(2-(2-cyclopropylpyridin-4-yl)-5,6-dihydro-4H-pyrrolo[1,2-b]pyrazol-4-yl)-5-fluorobenzamide], below 250 nM.
For `COc1cc(-c2cc3n(n2)CC[C@@H]3NC(=O)c2cc(F)cc(C#N)c2)ccn1` [Compound I-301a, (S)-3-Cyano-5-fluoro-N-(2-(2-methoxypyridin-4-yl)-5,6-dihydro-4H-pyrrolo[1,2-b]pyrazol-4-yl)benzamide] the value was below 250 nM.
The result for `N#Cc1cccc(C(=O)N[C@H]2CCCn3nc(-c4cc(C(F)(F)F)ncc4F)cc32)c1` [Compound I-302a, (S)-3-Cyano-N-(2-(5-fluoro-2-(trifluoromethyl)pyridin-4-yl)-4,5,6,7-tetrahydropyrazolo[1,5-a]pyridin-4-yl)benzamide] reads below 250 nM.
`Cc1cnc(C(F)(F)F)cc1-c1cc2n(n1)CCC[C@@H]2NC(=O)c1nc(C(F)(F)F)nn1C` [Compound I-303a, (S)-1-Methyl-N-(2-(5-methyl-2-(trifluoromethyl)pyridin-4-yl)-4,5,6,7-tetrahydropyrazolo[1,5-a]pyridin-4-yl)-3-(trifluoromethyl)-1H-1,2,4-triazole-5-carboxamide] had a 50% inhibitory concentration (IC50) below 250 nM.
The result for `Cc1cnc(C(F)(F)F)cc1-n1cc2c(n1)CC[C@@H]2NC(=O)c1cc(C(F)(F)F)nn1C` [Compound I-304a, (S)-1-Methyl-N-(2-(5-methyl-2-(trifluoromethyl)pyridin-4-yl)-2,4,5,6-tetrahydrocyclopenta[c]pyrazol-4-yl)-3-(trifluoromethyl)-1H-pyrazole-5-carboxamide] reads below 250 nM; that for `Cc1cc(C#N)cc(C(=O)NC2CCn3nc(-c4ccnc(C5CC5)c4)cc32)c1` (stereo not drawn) [Compound I-306a, 3-Cyano-N-(2-(2-cyclopropylpyridin-4-yl)-5,6-dihydro-4H-pyrrolo[1,2-b]pyrazol-4-yl)-5-methylbenzamide], below 250 nM.
For `Cn1nc(C(F)(F)F)cc1C(=O)N[C@H]1CCCn2nc(-c3cnnc(C(F)(F)F)c3)cc21` [Compound I-307a, (S)-1-Methyl-3-(trifluoromethyl)-N-(2-(6-(trifluoromethyl)pyridazin-4-yl)-4,5,6,7-tetrahydropyrazolo[1,5-a]pyridin-4-yl)-1H-pyrazole-5-carboxamide] the value was 500 to 1000 nM; for `Cn1nc(C(F)(F)F)nc1C(=O)N[C@H]1CCc2nn(-c3ccnc(C(F)(F)F)c3)cc21` [Compound I-308a, (S)-1-Methyl-3-(trifluoromethyl)-N-(2-(2-(trifluoromethyl)pyridin-4-yl)-2,4,5,6-tetrahydrocyclopenta[c]pyrazol-4-yl)-1H-1,2,4-triazole-5-carboxamide], below 250 nM; for `N#Cc1cccc(C(=O)N[C@H]2CCn3nc(-c4ccnc(C5CC5)c4)cc32)c1` [Compound I-310a, (S)-3-Cyano-N-(2-(2-cyclopropylpyridin-4-yl)-5,6-dihydro-4H-pyrrolo[1,2-b]pyrazol-4-yl)benzamide], below 250 nM.
For `Cc1cnc(C(F)(F)F)cc1-c1cc2n(n1)CCCC[C@@H]2NC(=O)c1cc(C(F)(F)F)nn1C` [Compound I-311a, (S)-1-Methyl-N-(2-(5-methyl-2-(trifluoromethyl)pyridin-4-yl)-5,6,7,8-tetrahydro-4H-pyrazolo[1,5-a]azepin-4-yl)-3-(trifluoromethyl)-1H-pyrazole-5-carboxamide] the value was below 250 nM; for `Cc1cnc(C(F)(F)F)cc1-c1cc2n(n1)CCCC[C@H]2NC(=O)c1cc(C(F)(F)F)nn1C` [Compound I-311b], above 1000 nM.
For `COc1cc(-c2cc3n(n2)CCCC[C@@H]3NC(=O)c2cc(F)cc(C#N)c2)ccn1` [Compound I-312a, (S)-3-Cyano-5-fluoro-N-(2-(2-methoxypyridin-4-yl)-5,6,7,8-tetrahydro-4H-pyrazolo[1,5-a]azepin-4-yl)benzamide], the IC50 is below 250 nM.
Regarding `COc1cc(-c2cc3n(n2)CCC[C@@H]3NC(=O)c2cc(F)cc(C#N)c2)ccn1` [Compound I-313a, (S)-3-Cyano-5-fluoro-N-(2-(2-methoxypyridin-4-yl)-4,5,6,7-tetrahydropyrazolo[1,5-a]pyridin-4-yl)benzamide], the IC50 is below 250 nM.
Compound `Cn1nc(C(F)(F)F)nc1C(=O)N[C@H]1CCn2nc(-c3ccnc(C(F)(F)F)c3)cc21` [Compound I-314a, (S)-1-Methyl-3-(trifluoromethyl)-N-(2-(2-(trifluoromethyl)pyridin-4-yl)-5,6-dihydro-4H-pyrrolo[1,2-b]pyrazol-4-yl)-1H-1,2,4-triazole-5-carboxamide] registered a concentration for half-maximal inhibition (IC50) below 250 nM.
As to `Cc1cc(-c2cc3n(n2)CCC[C@@H]3NC(=O)c2cc(C(F)(F)F)nn2C)cc(C2CC2)n1` [Compound I-315a, (S)-N-(2-(2-Cyclopropyl-6-methylpyridin-4-yl)-4,5,6,7-tetrahydropyrazolo[1,5-a]pyridin-4-yl)-1-methyl-3-(trifluoromethyl)-1H-pyrazole-5-carboxamide], the concentration for half-maximal inhibition (IC50) is below 250 nM.
For `Cn1nc(C(F)(F)F)cc1C(=O)N[C@H]1CCCn2nc(-c3nnc(C(F)(F)F)o3)cc21` [Compound I-316a, (S)-1-Methyl-3-(trifluoromethyl)-N-(2-(5-(trifluoromethyl)-1,3,4-oxadiazol-2-yl)-4,5,6,7-tetrahydropyrazolo[1,5-a]pyridin-4-yl)-1H-pyrazole-5-carboxamide] the value was 500 to 1000 nM; for `Cn1nc(C(F)(F)F)cc1C(=O)N[C@H]1CCCn2nc(-c3cnc(C(F)(F)F)o3)cc21` [Compound I-317a, (S)-1-Methyl-3-(trifluoromethyl)-N-(2-(2-(trifluoromethyl)oxazol-5-yl)-4,5,6,7-tetrahydropyrazolo[1,5-a]pyridin-4-yl)-1H-pyrazole-5-carboxamide], 500 to 1000 nM.
Turning to `CCOc1cc(C(=O)N[C@H]2CCn3nc(-c4cc(C(F)(F)F)ncc4F)cc32)ccn1` [Compound I-318a, (S)-2-Ethoxy-N-(2-(5-fluoro-2-(trifluoromethyl)pyridin-4-yl)-5,6-dihydro-4H-pyrrolo[1,2-b]pyrazol-4-yl)isonicotinamide], the half-maximal inhibitory concentration (IC50) is below 250 nM.
In turn, `N#Cc1cc(F)cc(C(=O)N[C@H]2CCCCn3nc(-c4ccnc(C(F)(F)F)c4)cc32)c1` [Compound I-319a, (S)-3-Cyano-5-fluoro-N-(2-(2-(trifluoromethyl)pyridin-4-yl)-5,6,7,8-tetrahydro-4H-pyrazolo[1,5-a]azepin-4-yl)benzamide] had an IC50 below 250 nM.
